Results published in US20110166121A1 (LG LIFE SCIENCES LTD., priority 2008, published 2011).

The compounds below were run on Human platelet aggregation caused by ADP (assay: Inhibition of ADP-induced platelet aggregation (Mimic-human PRP)). Conditions: 20 μM ADP, human platelet concentrate diluted with PPP, absorption at 595 nm.
Assay type: cell-based
Description: Platelet Preparation for Aggregation Studies
Human platelet aggregation reaction test is a functional experiment method to verify whether a test compound is an agonist or an antagonist to ADP receptor. […] The platelet product isolated from whole blood was purchased from Chung-Nam blood center (Dae-joen, South Korea). The platelet was isolated from 400 mL of whole blood containing 56 mL of CPDA-1 anticoagulant. To isolate the platelet product, 400 mL of whole blood was centrifuged at 260×g for 5 minutes, and then obtained PRP (platelet rich plasma) was secondary centrifuged at 370×g for 6 minutes. Platelet pellet (10^9/mL) was suspended with 45 mL of plasma and then agitated over 1 hour at 22° C. blood reservoir to stabilize it. The stabilized platelet product was used in the experiment within 24 hours. PCs (Platelet Concentrates) were gently transferred to a new 50 ml-falcon tube. The number of platelet was counted by using animal blood counter (ABC Vet, ABX diagnostics, France). The volume of 30 mL of PCs collected from same donor was centrifuged at 1500 g for 10 min at room temperature to prepare platelet-poor plasma (PPP). The platelet count was adjusted to platelet number of 3˜4×10^8/mL by diluting with PPP.
Evaluation on Inhibitory Effect of ADP-Induced Aggregation
Inhibition of ADP-induced aggregation was determined in 96-well flat-bottom plates (Costar, USA) at room temperature. The diluted platelet was aliquoted into each well of 96 well plate in the volume of 188 μl. […] The platelet including test compounds was immediately mixed on a shaker at 1050 rpm for 1 min and incubated at room temperature for 20 min. Then, 10 μL volume of 400 μM ADP was added: the final concentration of 20 μM ADP in the total reaction volume of 0.2 mL/well. After shaking of the plate at room temperature for 3 min, the absorption of the samples was determined at 595 nm using a microtiter plate reader (Softmax, Molecular Devices).
A dose-dependent curve on serial dilutions of ADP was accomplished by adding vehicle (DMSO) instead of antagonists in order to calculate EC50 of ADP. Inhibition of aggregation was calculated from the increase of absorption at 595 nm at 3 min of the reaction incubation, compared to results of absorption between the 0 and 20 μM ADP control without antagonists. Sigmoidal dose-response curves and Ki were derived by non-linear regression analysis using the Prism software (GraphPad, San Diego Calif.).

SMILES	Ki
CCCc1cc2c(N3CCn4c(nnc4C(F)(F)F)C3)nc(OC(C)CNC(=O)OC)nc2s1 (stereo not drawn) [Example 9-80, {2-[6-Propyl-4-(3-trifluoromethyl-5,6-dihydro-8H-[1,2,4]triazolo[4,3-a]pyrazin-7-yl)-thieno[2,3-d]pyrimidin-2-yloxy]-propyl}-carbamic acid methyl ester]	15 nM
CCCc1cc2c(N3CCn4c(nnc4C(F)(F)F)C3)nc(OCCN3CCCC3=O)nc2s1 [Example 3-62, 1-{2-[6-Propyl-4-(3-trifluoromethyl-5,6-dihydro-8H-[1,2,4]triazolo[4,3-a]pyrazin-7-yl)-thieno[2,3-d]pyrimidin-2-yloxy]-ethyl}-pyrrolidin-2-one]	1.9 nM
CCCc1cc2c(N3CCn4c(nnc4C(F)(F)F)C3)nc(N3CC[C@H](NC(=O)CO)C3)nc2s1 [Example 1-100, 2-Hydroxy-N-{(S)-1-[6-propyl-4-(3-trifluoromethyl-5,6-dihydro-8H-[1,2,4]triazolo[4,3-a]pyrazin-7-yl)-thieno[2,3-d]pyrimidin-2-yl]-pyrrolidin-3-yl}-acetamide]	6 nM
CCCc1cc2c(N3CCn4c(nnc4C(F)(F)F)C3)nc(N)nc2s1 [Example 9-38, 6-Propyl-4-(3-trifluoromethyl-5,6-dihydro-8H-[1,2,4]triazolo[4,3-a]pyrazin-7-yl)-thieno[2,3-d]pyrimidin-2-ylamine]	49 nM
CCCc1cc2c(N3CCn4c(nnc4C(F)(F)F)C3)nc(N(CCO)CC(=O)O)nc2s1 [Example 1-118, {(2-Hydroxy-ethyl)-[6-propyl-4-(3-trifluoromethyl-5,6-dihydro-8H-[1,2,4]triazolo[4,3-a]pyrazin-7-yl)-thieno[2,3-d]pyrimidin-2-yl]-amino}-acetic acid]	34 nM
CCCc1cc2c(N3CCn4c(nnc4C(F)(F)F)C3)nc(OCCN(CCO)C(C)=O)nc2s1 [Example 9-102, N-(2-Hydroxy-ethyl)-N-{2-[6-propyl-4-(3-trifluoromethyl-5,6-dihydro-8H-[1,2,4]triazolo[4,3-a]pyrazin-7-yl)-thieno[2,3-d]pyrimidin-2-yloxy]-ethyl}-acetamide]	8 nM
CCCc1cc2c(N3CCn4c(nnc4C(F)(F)F)C3)nc(OCCNC(=O)CO)nc2s1 [Example 3-60, 2-Hydroxy-N-{2-[6-propyl-4-(3-trifluoromethyl-5,6-dihydro-8H-[1,2,4]triazolo[4,3-a]pyrazin-7-yl)-thieno[2,3-d]pyrimidin-2-yloxy]-ethyl}-acetamide]	0.7 nM
CCCc1cc2c(N3CCn4c(nnc4C(F)(F)F)C3)nc(-n3ccc(N)n3)nc2s1 [Example 9-52, 1-[6-Propyl-4-(3-trifluoromethyl-5,6-dihydro-8H-[1,2,4]triazolo[4,3-a]pyrazin-7-yl)-thieno[2,3-d]pyrimidin-2-yl]-1H-pyrazol-3-ylamine]	16 nM
CCCc1cc2c(N3CCn4c(nnc4C(F)(F)F)C3)nc(OC[C@@H]3CCCN3C(C)=O)nc2s1 [Example 8-31, 1-{(S)-2-[6-Propyl-4-(3-trifluoromethyl-5,6-dihydro-8H-[1,2,4]triazolo[4,3-a]pyrazin-7-yl)-thieno[2,3-d]pyrimidin-2-yloxymethyl]-pyrrolidin-1-yl}-ethanone]	19 nM
CCCc1cc2c(N3CCn4c(nnc4C(F)(F)F)C3)nc(OCCCNC(C)=O)nc2s1 [Example 9-87, N-{3-[6-Propyl-4-(3-trifluoromethyl-5,6-dihydro-8H-[1,2,4]triazolo[4,3-a]pyrazin-7-yl)-thieno[2,3-d]pyrimidin-2-yloxy]-propyl}-acetamide]	430 nM
CCCc1cc2c(N3CCn4c(nnc4C(F)(F)F)C3)nc(-n3ccc([N+](=O)[O-])c3)nc2s1 [Example 9-47, 7-[2-(3-Nitro-pyrrole-1-yl)-6-propyl-thieno[2,3-d]pyrimidin-4-yl]-3-trifluoromethyl-5,6,7,8-tetrahydro-[1,2,4]triazolo[4,3-a]pyrazine]	3900 nM
CCCC(=O)N1CC[C@@H](Nc2nc(N3CCn4c(nnc4C(F)(F)F)C3)c3cc(CCC)sc3n2)C1 [Example 8-17, 1-{(R)-3-[6-Propyl-4-(3-trifluoromethyl-5,6-dihydro-8H-[1,2,4]triazolo[4,3-a]pyrazin-7-yl)-thieno[2,3-d]pyrimidin-2-ylamino]-pyrrolidin-1-yl}-butan-1-one]	35 nM
CCCc1cc2c(N3CCn4c(nnc4C(F)(F)F)C3)nc(OCCNC(=O)C3CC3)nc2s1 [Example 3-59, Cyclopropanecarboxylic Acid {2-[6-propyl-4-(3-trifluoromethyl-5,6-dihydro-8H-[1,2,4]triazolo[4,3-a]pyrazin-7-yl)-thieno[2,3-d]pyrimidin-2-yloxy]-ethyl}-amide]	1.5 nM
CCCc1cc2c(N3CCn4c(nnc4C(F)(F)F)C3)nc(N3CC(O)C(NC(=O)OCC)C3)nc2s1 (stereo not drawn) [Example 9-1, {4-Hydroxy-1-[6-propyl-4-(3-trifluoromethyl-5,6-dihydro-8H-[1,2,4]triazolo[4,3-a]pyrazin-7-yl)-thieno[2,3-d]pyrimidin-2-yl]-pyrrolidin-3-yl}-carbamic acid ethyl ester]	18 nM
CCCc1cc2c(N3CCn4c(nnc4C(F)(F)F)C3)nc(-c3nc(C(=O)O)cs3)nc2s1 [Example 4-46, 2-[6-Propyl-4-(3-trifluoromethyl-5,6-dihydro-8H-[1,2,4]triazolo[4,3-a]pyrazin-7-yl)thieno[2,3-d]pyrimidin-2-yl]thiazole-4-carboxylic acid]	25 nM
CCCc1cc2c(N3CCn4c(nnc4C(F)(F)F)C3)nc(N3CC[C@@H](NC=O)C3)nc2s1 [Example 9-22, N-{(R)-1-[6-Propyl-4-(3-trifluoromethyl-5,6-dihydro-8H-[1,2,4]triazolo[4,3-a]pyrazin-7-yl)-thieno[2,3-d]pyrimidin-2-yl]-pyrrolidin-3-yl}-formamide]	15 nM
CCCc1cc2c(N3CCn4c(nnc4C(F)(F)F)C3)nc(N3CC[C@H](NC(=O)C4CCCC4)C3)nc2s1 [Example 9-5, Cyclopentanecarboxylic Acid {(S)-1-[6-propyl-4-(3-trifluoromethyl-5,6-dihydro-8H-[1,2,4]triazolo[4,3-a]pyrazin-7-yl)-thieno[2,3-d]pyrimidin-2-yl]-pyrrolidin-3-yl}-amide]	130 nM
CCCc1cc2c(N3CCn4c(nnc4C(F)(F)F)C3)nc(OCCC(=O)N(C)C)nc2s1 [Example 9-67, N,N-Dimethyl-3-[6-propyl-4-(3-trifluoromethyl-5,6-dihydro-8H-[1,2,4]triazolo[4,3-a]pyrazin-7-yl)-thieno[2,3-d]pyrimidin-2-yloxy]-propionamide]	97 nM
CCCc1cc2c(N3CCn4c(nnc4C(F)(F)F)C3)nc(NC3CN(C(C)=O)C3)nc2s1 [Example 8-10, 1-{3-[6-Propyl-4-(3-trifluoromethyl-5,6-dihydro-8H-[1,2,4]triazolo[4,3-a]pyrazin-7-yl)-thieno[2,3-d]pyrimidin-2-ylamino]-azetidin-1-yl}-ethanone]	110 nM
CCCc1cc2c(N3CCn4c(nnc4C(F)(F)F)C3)nc(OCC(C)NC(=O)OC)nc2s1 (stereo not drawn) [Example 9-81, {1-Methyl-2-[6-propyl-4-(3-trifluoromethyl-5,6-dihydro-8H-[1,2,4]triazolo[4,3-a]pyrazin-7-yl)-thieno[2,3-d]pyrimidin-2-yloxy]-ethyl}-carbamic acid methyl ester]	7 nM
CCCc1cc2c(N3CCn4c(nnc4C(F)(F)F)C3)nc(N3CC[C@H](C(=O)N(C)C4CCCCC4)C3)nc2s1 [Example 9-65]	9300 nM
CCCC(=O)N1CC[C@H](CNc2nc(N3CCn4c(nnc4C(F)(F)F)C3)c3cc(CCC)sc3n2)C1 [Example 8-23, 1-((R)-3-{[6-Propyl-4-(3-trifluoromethyl-5,6-dihydro-8H-[1,2,4]triazolo[4,3-a]pyrazin-7-yl)-thieno[2,3-d]pyrimidin-2-ylamino]-methyl}-pyrrolidin-1-yl)-butan-1-one]	570 nM
CCCc1cc2c(N3CCn4c(nnc4C(F)(F)F)C3)nc(OCCNC(=O)C(C)(C)CO)nc2s1 [Example 7-35, 3-Hydroxy-2,2-dimethyl-N-{2-[6-propyl-4-(3-trifluoromethyl-5,6-dihydro-8H-[1,2,4]triazolo[4,3-a]pyrazin-7-yl)-thieno[2,3-d]pyrimidin-2-yloxy]-ethyl}-propionamide]	10 nM
CCCc1cc2c(N3CCn4c(nnc4C(F)(F)F)C3)nc(N(C)CCO)nc2s1 [Example 9-106, 2-{Methyl-[6-propyl-4-(3-trifluoromethyl-5,6-dihydro-8H-[1,2,4]triazolo[4,3-a]pyrazin-7-yl)-thieno[2,3-d]pyrimidin-2-yl]-amino}-ethanol]	140 nM
